Reference: paper PMC8460919, “Novel Angiotensin-I Converting Enzyme Inhibitory Peptides Isolated From Rice Wine Lees: Purification, Characterization, and Structure-Activity Relationship” (Frontiers in Nutrition, 2021)
Where two headings read alike, the source gives them in different places. Residues, ends and D or L forms follow the SMILES beside them.

Key:
[1] = target: T1, Angiotensin-I converting enzyme (from rabbit lung) (Oryctolagus cuniculus, UniProt P12822); experiment: ACE inhibitory activity (HHL substrate, hippuric acid by HPLC); format: biochemical; details: for inhibition at 1000 µg/mL: concentration 1 mg/ml
T1 construct: Angiotensin-I converting enzyme (from rabbit lung); purchased Sigma Co., USA; host or cells: rabbit lung (tissue-derived)
T1 sequence (P12822 34-1310): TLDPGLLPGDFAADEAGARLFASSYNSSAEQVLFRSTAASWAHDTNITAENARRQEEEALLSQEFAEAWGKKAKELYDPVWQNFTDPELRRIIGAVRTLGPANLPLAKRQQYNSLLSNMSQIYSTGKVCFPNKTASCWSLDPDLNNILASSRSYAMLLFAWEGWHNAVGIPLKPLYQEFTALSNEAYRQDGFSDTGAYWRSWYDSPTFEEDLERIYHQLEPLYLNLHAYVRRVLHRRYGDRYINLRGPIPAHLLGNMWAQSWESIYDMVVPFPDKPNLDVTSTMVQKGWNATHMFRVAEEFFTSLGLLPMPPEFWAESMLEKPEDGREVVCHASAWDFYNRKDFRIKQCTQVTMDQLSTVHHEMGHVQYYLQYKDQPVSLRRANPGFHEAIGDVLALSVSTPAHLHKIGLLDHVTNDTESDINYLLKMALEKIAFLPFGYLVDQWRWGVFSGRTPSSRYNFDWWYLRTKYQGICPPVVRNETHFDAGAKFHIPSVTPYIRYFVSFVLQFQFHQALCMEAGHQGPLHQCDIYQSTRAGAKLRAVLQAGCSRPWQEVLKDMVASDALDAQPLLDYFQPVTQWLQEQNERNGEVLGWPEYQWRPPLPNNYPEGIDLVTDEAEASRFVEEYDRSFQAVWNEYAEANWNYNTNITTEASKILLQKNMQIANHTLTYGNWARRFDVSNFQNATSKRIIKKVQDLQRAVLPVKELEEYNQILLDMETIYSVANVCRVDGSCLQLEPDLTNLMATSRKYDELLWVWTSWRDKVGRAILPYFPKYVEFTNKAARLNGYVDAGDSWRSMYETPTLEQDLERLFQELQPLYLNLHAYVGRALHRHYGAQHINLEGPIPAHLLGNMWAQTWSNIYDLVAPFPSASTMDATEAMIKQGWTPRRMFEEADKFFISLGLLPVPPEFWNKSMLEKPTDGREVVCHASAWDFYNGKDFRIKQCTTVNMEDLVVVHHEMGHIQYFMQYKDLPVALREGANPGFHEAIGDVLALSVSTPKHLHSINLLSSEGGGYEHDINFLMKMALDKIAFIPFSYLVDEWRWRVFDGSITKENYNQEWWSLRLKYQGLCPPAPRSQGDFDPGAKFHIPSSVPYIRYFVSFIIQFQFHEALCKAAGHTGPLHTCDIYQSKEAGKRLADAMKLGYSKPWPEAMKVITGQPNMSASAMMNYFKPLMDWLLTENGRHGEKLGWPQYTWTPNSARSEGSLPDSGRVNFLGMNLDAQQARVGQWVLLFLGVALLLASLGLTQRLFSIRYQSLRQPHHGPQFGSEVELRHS
Experimental: (§1) Rice wine lees was obtained from Guangdong Shunde Winery Co., Ltd., Shunde, China. Angiotensin-I converting enzyme (from rabbit lung) and N-Hippuryl-His-Leu hydrate (HHL) were purchased from Sigma Co., USA. Other chemicals and reagents were of analytical grade.
Angiotensin-I converting enzyme inhibitory activity was measured using the method described in Wu et al. ([29]) with some modifications. For each reaction, 10 μl of 0.25 U/ ml ACE solution (prepared in 0.01 M potassium phosphate buffer containing 0.5 M NaCl, pH 7.0) was mixed with 10 μl of inhibitor solution and incubated for 5 min at 37°C. Subsequently, 30 μl of HHL solution (5 mM in 0.1 M sodium borate buffer containing 0.3 M NaCl, pH 8.3) was added, followed by incubation at 37°C for 1 h. The reaction was terminated with the addition of 70 μl 1 M HCl before subsequent assays were performed. For the control group, 10 μl ACE solution and 80 μl 1 M HCl were simultaneously added to the mixture. A blank sample was prepared by replacing the inhibitor solution with 10 μl borate buffer. […] Angiotensin-I converting enzyme activity (%) was calculated according to the following equation:
ACE inhibition(%) = (A1-A2)-B/(A1-A2)×100%
Where A1, A2, and B are peak areas corresponding to Hippuric Acid in the control group, the blank and the sample, respectively.

pepsin, chymotrypsin = experiment: Stability of peptides during in vitro digestion by gastrointestinal enzymes (ACEi activity after digestion); format: in vitro ADME; details: in vitro digestion by pepsin and chymotrypsin
Experimental: Peptide stability was measured according to the methods described in Chen et al. ([30]) with some modifications. For this assay, 2% (w/w) pepsin was dissolved in a KCl–HCl buffer (0.1 mM) adjusted to pH 2.0, and 2% (w/w) chymotrypsin was dissolved in a KCl–NaOH (0.1 mM) buffer adjusted to pH 7.0. Peptides were dissolved at 1 mg/ml in pepsin or chymotrypsin solutions and incubated at 37°C for 4 h. Reactions were terminated by boiling for 15 min. After centrifugation at 4,000 rpm for 15 min, the supernatant was collected, pH was adjusted to 8.0, and samples were assayed for ACEi activity. The supernatant was also analyzed using the previously described RP-HPLC conditions to evaluate changes to the peptides after in vitro digestion.
Control groups were prepared by incubating inactivated pepsin and/or chymotrypsin (boiled for 15 min) with the sample peptides. After incubation, the mixture was processed and analyzed as described.

ACE [2] = target: T2, ACE (Oryctolagus cuniculus, UniProt P12822); experiment: Stability of peptides against ACE (pre-incubation with ACE, then ACEi assay); format: in vitro ADME, rabbit; details: for category of ACEi peptide from ACE pre-incubation test: true inhibitor / real substrate / pro-drug type
T2 construct: Angiotensin-I converting enzyme (from rabbit lung); purchased Sigma Co., USA; host or cells: rabbit lung (tissue-derived)
T2 sequence (P12822 34-1310): T1 sequence (P12822 34-1310)
Experimental: as §1
The stability of peptides against ACE was assayed according to the methods of Deng ([31]), with some modifications. For each reaction, 30 μl of peptides (2 mg/ml) was combined with 30 μl 0.25 U/ml ACE solution and incubated at 37°C for 30 min. Angiotensin-I converting enzyme was then inactivated by boiling the solution for 10 min. As described in section Measurement of ACEi Activity, 20 μl of each peptide sample was used for the detection of ACEi activity.

ACE [3] = target: T2, ACE; experiment: Kinetic parameters of ACE inhibition (Lineweaver-Burk plots); format: biochemical, rabbit; details: for type of ACE inhibition: Lineweaver-Burk plots, peptides at 0.05 or 0.1 mg/ml
Experimental: Angiotensin-I converting enzyme inhibition of purified peptides was determined using Lineweaver–Burk plots according to reported methods ([32]). Samples were added at two fixed concentrations to each reaction mixture, and enzyme activity was measured for different concentrations of the substrate HHL according to the ACE inhibition assay. The curves were described by 1/area and 1/[S], and the kinetics of ACE inhibitors were estimated by comparing the resulting curves.
To clarify the kinetics of inhibition, Lineweaver–Burk plots were generated. Various concentrations of substrate were incubated with ACE solution in the absence or presence of RWLE peptides at 0.05 or 0.1 mg/ml.

[4] = peptide concentration 0.05 mg/ml
[5] = peptide concentration 0.1 mg/ml

SMILES: CC[C@H](C)[C@H](NC(=O)[C@@H](N)CC(C)C)C(=O)N[C@H](C(=O)N1CCC[C@H]1C(=O)N[C@@H](CCC(N)=O)C(=O)N[C@@H](Cc1c[nH]cn1)C(=O)O)[C@@H](C)CC [H5, LIIPQH] (H-LIIPQH-OH; N-terminus and C-terminus assumed)
- inhibition at 1000 µg/mL [1]: 89.3%
- stability against gastrointestinal enzymes (pepsin, chymotrypsin): stable within the gastrointestinal environment
- stability against gastrointestinal enzymes (pepsin, chymotrypsin; listed as LIIPQH): stable
- stability against ACE (ACE [2]): stable
- category of ACEi peptide from ACE pre-incubation test (ACE [2]): pro-drug ACE-inhibitors
- type of ACE inhibition (ACE [3]): non-competitive inhibitors (mostly mixed-type)
- type of ACE inhibition (ACE [3]; listed as LIIPQH): mixed-type ACE inhibitors
- Vm (ACE [3]; [4]): 0.120 ΔA/min
- Vm (ACE [3]; [5]): 0.070 ΔA/min

SMILES: CC[C@H](C)[C@H](NC(=O)[C@@H](N)CC(C)C)C(=O)N[C@H](C(=O)N1CCC[C@H]1C(=O)N[C@@H](CCC(=O)O)C(=O)N[C@@H](Cc1c[nH]cn1)C(=O)O)[C@@H](C)CC [H6, LIIPEH] (H-LIIPEH-OH; N-terminus and C-terminus assumed)
- inhibition at 1000 µg/mL [1]: 91.7%
- IC50 ([1]; products of each purification step (natural, from RWLE)): 83.9 µM
- IC50 ([1]; synthetic peptides): 78.6 µM
- stability against gastrointestinal enzymes (pepsin, chymotrypsin): stable within the gastrointestinal environment
- stability against gastrointestinal enzymes (pepsin, chymotrypsin; listed as LIIPEH): stable
- stability against ACE (ACE [2]): stable
- IC50 (ACE [2]; control (co-incubation with inactive ACE), read-out: IC50 without pre-incubation (converted)): 51.3 µM
- IC50 (ACE [2]; pre-incubation with ACE, 37°C 30 min, read-out: IC50 with pre-incubation (converted)): 70.7 µM
- category of ACEi peptide from ACE pre-incubation test (ACE [2]): pro-drug ACE-inhibitors
- type of ACE inhibition (ACE [3]): non-competitive inhibitors (mostly mixed-type)
- type of ACE inhibition (ACE [3]; listed as LIIPEH): mixed-type ACE inhibitors
- Vm (ACE [3]; [4]): 0.099 ΔA/min
- Vm (ACE [3]; [5]): 0.049 ΔA/min

SMILES: CC[C@H](C)[C@H](N)C(=O)N[C@H](C(=O)N1CCC[C@H]1C(=O)N[C@@H](CCC(N)=O)C(=O)N[C@@H](Cc1c[nH]cn1)C(=O)O)[C@@H](C)CC [IIPQH] (H-IIPQH-OH; N-terminus and C-terminus assumed)
- IC50 ([1]; synthetic peptides): 1780 µM

SMILES: CC[C@H](C)[C@H](NC(=O)[C@@H](N)CC(C)C)C(=O)N[C@H](C(=O)N1CCC[C@H]1C(=O)N[C@@H](CCC(N)=O)C(=O)N[C@@H](Cc1c[nH]cn1)C(=O)N[C@@H](Cc1c[nH]cn1)C(=O)O)[C@@H](C)CC [LIIPQHH] (H-LIIPQHH-OH; N-terminus and C-terminus assumed)
- IC50 ([1]; synthetic peptides): 1410 µM

SMILES: CC[C@H](C)[C@H](NC(=O)[C@@H](N)CC(C)C)C(=O)N[C@H](C(=O)N1CCC[C@H]1C(=O)N[C@@H](CCC(N)=O)C(=O)N[C@@H](Cc1c[nH]cn1)C(=O)N[C@@H](Cc1ccc(O)cc1)C(=O)O)[C@@H](C)CC [LIIPQHY] (H-LIIPQHY-OH; N-terminus and C-terminus assumed)
- IC50 ([1]; synthetic peptides): 1230 µM

SMILES: CC[C@H](C)[C@H](NC(=O)[C@@H](N)CC(C)C)C(=O)N[C@H](C(=O)N1CCC[C@H]1C(=O)N[C@@H](CCC(N)=O)C(=O)O)[C@@H](C)CC [LIIPQ] (H-LIIPQ-OH; N-terminus and C-terminus assumed)
- IC50 ([1]; synthetic peptides): 2390 µM

SMILES: CC[C@H](C)[C@H](NC(=O)[C@@H](N)CC(C)C)C(=O)N[C@H](C(=O)N1CCC[C@H]1C(=O)O)[C@@H](C)CC [LIIP] (H-LIIP-OH; N-terminus and C-terminus assumed)
- IC50 ([1]; synthetic peptides): 2040 µM

SMILES: CC[C@H](C)[C@H](NC(=O)[C@H](CC(C)C)NC(=O)[C@@H](N)CC(C)C)C(=O)N[C@H](C(=O)N1CCC[C@H]1C(=O)N[C@@H](CCC(N)=O)C(=O)N[C@@H](Cc1c[nH]cn1)C(=O)O)[C@@H](C)CC [LLIIPQH] (H-LLIIPQH-OH; N-terminus and C-terminus assumed)
- IC50 ([1]; synthetic peptides): 995 µM
